Reference: the NIST ThermoML archive (doi:10.1021/acs.jced.8b01120)
± gives the expanded uncertainty stated by the source.

Experiment: xn = mol fraction of the nth substance listed
Conditions: 100 kPa, Liquid; for speed of sound: Single path-length method; for mass density: Vibrating tube method

With CCCCN(CCCC)CCCC [tributylamine] + CCOC(C)=O the speed of sound (293.15 K, x1 = 0.0502) was 1168.6 ± 4 m/s, the speed of sound (293.15 K, x1 = 0.104) was 1172.6 ± 4 m/s and the speed of sound (293.15 K, x1 = 0.2041) was 1182.8 ± 4 m/s. For the same compound, the speed of sound (293.15 K, x1 = 0.3022) was 1193.2 ± 4 m/s, the speed of sound (293.15 K, x1 = 0.402) was 1203.3 ± 4 m/s and the speed of sound (293.15 K, x1 = 0.5017) was 1213.4 ± 4 m/s. For the same compound, the speed of sound (293.15 K, x1 = 0.6003) was 1223 ± 4 m/s, the speed of sound (293.15 K, x1 = 0.7004) was 1233.6 ± 4 m/s and the speed of sound (293.15 K, x1 = 0.8009) was 1244 ± 4 m/s. The speed of sound (293.15 K, x1 = 0.9011) was 1253.8 ± 4 m/s, the speed of sound (293.15 K, x1 = 1) was 1264.2 ± 4 m/s and the mass density (293.15 K, x1 = 0.0502) was 886.034 ± 2 kg/m3. It also gave a mass density (293.15 K, x1 = 0.104) of 872.134 ± 2 kg/m3, a mass density (293.15 K, x1 = 0.2041) of 850.473 ± 2 kg/m3 and a mass density (293.15 K, x1 = 0.3022) of 834.126 ± 2 kg/m3. The mass density (293.15 K, x1 = 0.402) was 820.855 ± 2 kg/m3, the mass density (293.15 K, x1 = 0.5017) was 810.036 ± 2 kg/m3 and the mass density (293.15 K, x1 = 0.6003) was 801.163 ± 2 kg/m3. The mass density (293.15 K, x1 = 0.7004) was 793.656 ± 2 kg/m3, the mass density (293.15 K, x1 = 0.8009) was 787.308 ± 2 kg/m3 and the mass density (293.15 K, x1 = 0.9011) was 781.785 ± 2 kg/m3. It also gave a mass density (293.15 K, x1 = 1) of 777.006 ± 2 kg/m3, a speed of sound (298.15 K, x1 = 0.0502) of 1146.5 ± 4 m/s and a speed of sound (298.15 K, x1 = 0.104) of 1152.6 ± 4 m/s. For the same compound, the speed of sound (298.15 K, x1 = 0.2041) was 1162.8 ± 4 m/s, the speed of sound (298.15 K, x1 = 0.3022) was 1172.8 ± 4 m/s and the speed of sound (298.15 K, x1 = 0.402) was 1182.8 ± 4 m/s. It also gave a speed of sound (298.15 K, x1 = 0.5017) of 1194 ± 4 m/s, a speed of sound (298.15 K, x1 = 0.6003) of 1203.8 ± 4 m/s and a speed of sound (298.15 K, x1 = 0.7004) of 1214.6 ± 4 m/s. For the same compound, the speed of sound (298.15 K, x1 = 0.8009) was 1224.7 ± 4 m/s, the speed of sound (298.15 K, x1 = 0.9011) was 1234.6 ± 4 m/s and the speed of sound (298.15 K, x1 = 1) was 1245.2 ± 4 m/s. For the same compound, the mass density (298.15 K, x1 = 0.0502) was 880.238 ± 2 kg/m3, the mass density (298.15 K, x1 = 0.104) was 866.571 ± 2 kg/m3 and the mass density (298.15 K, x1 = 0.2041) was 845.352 ± 2 kg/m3. It also gave a mass density (298.15 K, x1 = 0.3022) of 829.336 ± 2 kg/m3, a mass density (298.15 K, x1 = 0.402) of 816.274 ± 2 kg/m3 and a mass density (298.15 K, x1 = 0.5017) of 805.655 ± 2 kg/m3. It also gave a mass density (298.15 K, x1 = 0.6003) of 796.948 ± 2 kg/m3, a mass density (298.15 K, x1 = 0.7004) of 789.584 ± 2 kg/m3 and a mass density (298.15 K, x1 = 0.8009) of 783.362 ± 2 kg/m3. It also gave a mass density (298.15 K, x1 = 0.9011) of 777.942 ± 2 kg/m3, a mass density (298.15 K, x1 = 1) of 773.283 ± 2 kg/m3 and a speed of sound (303.15 K, x1 = 0.0502) of 1124.6 ± 4 m/s. It also gave a speed of sound (303.15 K, x1 = 0.104) of 1129.9 ± 4 m/s, a speed of sound (303.15 K, x1 = 0.2041) of 1140.7 ± 4 m/s and a speed of sound (303.15 K, x1 = 0.3022) of 1151.3 ± 4 m/s. The speed of sound (303.15 K, x1 = 0.402) was 1161.7 ± 4 m/s, the speed of sound (303.15 K, x1 = 0.5017) was 1172.7 ± 4 m/s and the speed of sound (303.15 K, x1 = 0.6003) was 1182.3 ± 4 m/s. For the same compound, the speed of sound (303.15 K, x1 = 0.7004) was 1193.2 ± 4 m/s, the speed of sound (303.15 K, x1 = 0.8009) was 1205.4 ± 4 m/s and the speed of sound (303.15 K, x1 = 0.9011) was 1215.4 ± 4 m/s. It also gave a speed of sound (303.15 K, x1 = 1) of 1226.2 ± 4 m/s, a mass density (303.15 K, x1 = 0.0502) of 874.248 ± 2 kg/m3 and a mass density (303.15 K, x1 = 0.104) of 860.881 ± 2 kg/m3. For the same compound, the mass density (303.15 K, x1 = 0.2041) was 840.168 ± 2 kg/m3, the mass density (303.15 K, x1 = 0.3022) was 824.418 ± 2 kg/m3 and the mass density (303.15 K, x1 = 0.402) was 811.568 ± 2 kg/m3. The mass density (303.15 K, x1 = 0.5017) was 801.215 ± 2 kg/m3, the mass density (303.15 K, x1 = 0.6003) was 792.639 ± 2 kg/m3 and the mass density (303.15 K, x1 = 0.7004) was 785.465 ± 2 kg/m3. The mass density (303.15 K, x1 = 0.8009) was 779.404 ± 2 kg/m3, the mass density (303.15 K, x1 = 0.9011) was 774.089 ± 2 kg/m3 and the mass density (303.15 K, x1 = 1) was 769.552 ± 2 kg/m3. It also gave a speed of sound (308.15 K, x1 = 0.0502) of 1102.3 ± 4 m/s, a speed of sound (308.15 K, x1 = 0.104) of 1108.7 ± 4 m/s and a speed of sound (308.15 K, x1 = 0.2041) of 1119.9 ± 4 m/s. The speed of sound (308.15 K, x1 = 0.3022) was 1131.6 ± 4 m/s, the speed of sound (308.15 K, x1 = 0.402) was 1141.7 ± 4 m/s and the speed of sound (308.15 K, x1 = 0.5017) was 1152.9 ± 4 m/s. The speed of sound (308.15 K, x1 = 0.6003) was 1163.6 ± 4 m/s, the speed of sound (308.15 K, x1 = 0.7004) was 1174.6 ± 4 m/s and the speed of sound (308.15 K, x1 = 0.8009) was 1185.6 ± 4 m/s. The speed of sound (308.15 K, x1 = 0.9011) was 1196.5 ± 4 m/s, the speed of sound (308.15 K, x1 = 1) was 1207.4 ± 4 m/s and the mass density (308.15 K, x1 = 0.0502) was 868.137 ± 2 kg/m3. The mass density (308.15 K, x1 = 0.104) was 854.773 ± 2 kg/m3, the mass density (308.15 K, x1 = 0.2041) was 834.885 ± 2 kg/m3 and the mass density (308.15 K, x1 = 0.3022) was 819.471 ± 2 kg/m3. The mass density (308.15 K, x1 = 0.402) was 806.892 ± 2 kg/m3, the mass density (308.15 K, x1 = 0.5017) was 796.734 ± 2 kg/m3 and the mass density (308.15 K, x1 = 0.6003) was 788.358 ± 2 kg/m3. For the same compound, the mass density (308.15 K, x1 = 0.7004) was 781.294 ± 2 kg/m3, the mass density (308.15 K, x1 = 0.8009) was 775.399 ± 2 kg/m3 and the mass density (308.15 K, x1 = 0.9011) was 770.192 ± 2 kg/m3. For the same compound, the mass density (308.15 K, x1 = 1) was 765.811 ± 2 kg/m3, the speed of sound (313.15 K, x1 = 0.0502) was 1080.9 ± 4 m/s and the speed of sound (313.15 K, x1 = 0.104) was 1088.3 ± 4 m/s. It also gave a speed of sound (313.15 K, x1 = 0.2041) of 1098.8 ± 4 m/s, a speed of sound (313.15 K, x1 = 0.3022) of 1109.3 ± 4 m/s and a speed of sound (313.15 K, x1 = 0.402) of 1120.9 ± 4 m/s. For the same compound, the speed of sound (313.15 K, x1 = 0.5017) was 1132.9 ± 4 m/s, the speed of sound (313.15 K, x1 = 0.6003) was 1143.3 ± 4 m/s and the speed of sound (313.15 K, x1 = 0.7004) was 1154.3 ± 4 m/s. For the same compound, the speed of sound (313.15 K, x1 = 0.8009) was 1166.1 ± 4 m/s, the speed of sound (313.15 K, x1 = 0.9011) was 1177.7 ± 4 m/s and the speed of sound (313.15 K, x1 = 1) was 1188.8 ± 4 m/s. For the same compound, the mass density (313.15 K, x1 = 0.0502) was 862.077 ± 2 kg/m3, the mass density (313.15 K, x1 = 0.104) was 848.939 ± 2 kg/m3 and the mass density (313.15 K, x1 = 0.2041) was 829.51 ± 2 kg/m3. For the same compound, the mass density (313.15 K, x1 = 0.3022) was 814.442 ± 2 kg/m3, the mass density (313.15 K, x1 = 0.402) was 802.143 ± 2 kg/m3 and the mass density (313.15 K, x1 = 0.5017) was 792.21 ± 2 kg/m3. For the same compound, the mass density (313.15 K, x1 = 0.6003) was 784.016 ± 2 kg/m3, the mass density (313.15 K, x1 = 0.7004) was 777.107 ± 2 kg/m3 and the mass density (313.15 K, x1 = 0.8009) was 771.342 ± 2 kg/m3. It also gave a mass density (313.15 K, x1 = 0.9011) of 766.343 ± 2 kg/m3 and a mass density (313.15 K, x1 = 1) of 762.061 ± 2 kg/m3.
